Source: patent US20070128217A1 (priority 2003, published 2007)

What was measured:
[1] = test system: rabbit serum obtained by immunizing a rabbit with the SARS-CoV strain Frankfurt 1; type: binding; set-up: Binding of a rabbit serum to linear peptides / Binding of a rabbit serum to looped peptides / Rabbit serum linear peptides / Rabbit serum looped peptides / Binding of a rabbit serum to linear peptides of protein N of SARS-CoV Urbani (Rabbit serum linear peptides) / Binding of a rabbit serum to looped/cyclic peptides of protein N of SARS-CoV Urbani (Rabbit serum looped peptides): unit not given here
[2] = test system: recombinant human anti-SARS-CoV antibody 03-018; type: binding; set-up: Binding of antibody 03-018 to linear peptides of the N protein of SARS-CoV Urbani / Binding of antibody 03-018 to looped/cyclic peptides of the N protein of SARS-CoV Urbani: unit not given here
[3] = test system: antibodies in sera from SARS patients (sera 1a, 1b, 2, 6, 37, 62, London, SARS-yellow, SARS-green); type: binding, human; set-up: Binding of serum 6 to linear peptides of protein X1 of SARS-CoV Urbani / Binding of serum 37 to linear peptides of protein X1 of SARS-CoV Urbani / Binding of serum 6 to looped/cyclic peptide (PEPSCAN-ELISA) / Binding of serum 37 to looped/cyclic peptide (PEPSCAN-ELISA) / Binding of serum 37 to looped/cyclic peptides of protein X1 of SARS-CoV Urbani / Binding of serum 6 to linear peptides of protein X2 / Binding of serum 37 to linear peptides of protein X2 / Binding of serum 37 to looped/cyclic peptides of protein X2 of SARS-CoV Urbani / Binding of serum 6 to linear peptides of protein M of SARS-CoV Urbani / Binding of serum 37 to linear peptides of protein M of SARS-CoV Urbani / Binding of serum 6 to looped/cyclic peptides of protein M of SARS-CoV Urbani / Binding of serum 37 to looped/cyclic peptides of protein M of SARS-CoV Urbani / Binding of serum 6 to linear peptides of protein X3 of SARS-CoV Urbani / Binding of serum 37 to linear peptides of protein X3 of SARS-CoV Urbani / Binding of serum 37 to looped/cyclic peptides of protein X3 of SARS-CoV Urbani / Binding of serum 6 to linear peptides of protein X4 of SARS-CoV Urbani / Binding of serum 37 to linear peptides of protein X4 of SARS-CoV Urbani / Binding of serum 37 to looped/cyclic peptides of protein X4 of SARS-CoV Urbani / Binding of serum 6 to linear peptides of protein X5 of SARS-CoV Urbani / Binding of serum 37 to linear peptides of protein X5 of SARS-CoV Urbani / Binding of serum 37 to looped/cyclic peptides of protein X5 of SARS-CoV Urbani / Binding of serum 6 to linear peptides of protein N of SARS-CoV Urbani / Binding of serum 37 to linear peptides of protein N of SARS-CoV Urbani / Binding of serum 6 to linear peptide (PEPSCAN-ELISA) / Binding of serum 1a to looped/cyclic peptides of protein N of SARS-CoV Urbani / Binding of serum 1b to looped/cyclic peptides of protein N of SARS-CoV Urbani / Binding of serum 2 to looped/cyclic peptides of protein N of SARS-CoV Urbani / Binding of serum 6 to looped/cyclic peptides of protein N of SARS-CoV Urbani / Binding of serum 37 to looped/cyclic peptides of protein N of SARS-CoV Urbani / Binding of serum 62 to looped/cyclic peptides of protein N of SARS-CoV Urbani / Binding of serum London to looped/cyclic peptides of protein N of SARS-CoV Urbani / Binding of serum SARS-green to looped/cyclic peptides of protein N of SARS-CoV Urbani: unit not given here
[4] = test system: control sera (pooled serum of ten healthy LUMC hospital workers; commercial negative donor pooled serum from the Dutch bloodbank); type: binding, human; set-up: Binding of Control serum LUMC to linear peptides / Binding of Control serum Blood-bank to linear peptides / Binding of Control serum LUMC to looped peptides / Binding of Control Serum Blood-Bank to Looped peptides / Binding of Control serum LUMC to linear peptides of the protein M of SARS-CoV Urbani / Binding of Control serum Blood-bank to linear peptides of the protein M of SARS-CoV Urbani / Binding of Control serum LUMC to looped peptides of the protein M of SARS-CoV Urbani / Binding of Control Serum Blood-Bank to Looped peptides of the protein M of SARS-CoV Urbani: unit not given here

Sequence	Binding of a rabbit serum to linear peptides of protein N of SARS-CoV Urbani (Rabbit serum linear peptides) [1]	Binding of a rabbit serum to looped/cyclic peptides of protein N of SARS-CoV Urbani (Rabbit serum looped peptides) [1]	Binding of antibody 03-018 to linear peptides of the N protein of SARS-CoV Urbani [2]	Binding of antibody 03-018 to looped/cyclic peptides of the N protein of SARS-CoV Urbani [2]	Binding of serum 1a to linear peptides of protein N of SARS-CoV Urbani [3]	Binding of serum 1a to looped/cyclic peptides of protein N of SARS-CoV Urbani [3]	Binding of serum 1b to linear peptides of protein N of SARS-CoV Urbani [3]	Binding of serum 1b to looped/cyclic peptides of protein N of SARS-CoV Urbani [3]	Binding of serum 2 to linear peptides of protein N of SARS-CoV Urbani [3]	Binding of serum 2 to looped/cyclic peptides of protein N of SARS-CoV Urbani [3]	Binding of serum 6 to linear peptides of protein N of SARS-CoV Urbani [3]	Binding of serum 37 to linear peptides of protein N of SARS-CoV Urbani [3]	Binding of serum 62 to linear peptides of protein N of SARS-CoV Urbani [3]	Binding of serum London to linear peptides of protein N of SARS-CoV Urbani [3]	Binding of serum SARS-green to linear peptides of protein N of SARS-CoV Urbani [3]	Binding of serum SARS-yellow to linear peptides of protein N of SARS-CoV Urbani [3]	Control Serum Blood-Bank Looped peptides [4]	Control serum Blood-bank linear peptides [4]	Control serum LUMC linear peptides [4]	Control serum LUMC looped peptides [4]	further results
QIAQFAPSASAFFGM	0.1	0.5	0.1	0.3	0.3	0.5	0.1	0.3	0.2	0.5	0.2	0.7	0.6	0.5	0.7	0.7	0.9	0.9	0.7	0.7	Binding of serum 6 to looped/cyclic peptides of protein N of SARS-CoV Urbani [3]: 0.3; Binding of serum 37 to looped/cyclic peptides of protein N of SARS-CoV Urbani [3]: 0.8; Binding of serum 62 to looped/cyclic peptides of protein N of SARS-CoV Urbani [3]: 0.8; Binding of serum London to looped/cyclic peptides of protein N of SARS-CoV Urbani [3]: 0.5; Binding of serum SARS-green to looped/cyclic peptides of protein N of SARS-CoV Urbani [3]: 0.5; Binding of serum SARS-yellow to looped/cyclic peptides of protein N of SARS-CoV Urbani [3]: 0.5.
QKKQPTVTLLPAADM	0.2	0.7	0.1	0.3	0.3	–	0.2	–	0.2	–	0.2	0.7	0.6	0.6	0.4	0.5	0.9	0.7	0.6	0.7	Recognition of the peptide by sera of SARS-CoV infected individuals, and form (linear, looped/cyclic) in which it is recognized [3]: recognized in looped/cyclic form
QLESKVSGKGQQQQG	0.1	0.4	0.1	0.3	–	0.5	–	0.4	–	0.7	–	–	–	–	–	–	–	–	–	–	Binding of serum 1a to linear peptide (PEPSCAN-ELISA) [3]: 0.3; Binding of serum 1b to linear peptide (PEPSCAN-ELISA) [3]: 0.1; Binding of serum 2 to linear peptide (PEPSCAN-ELISA) [3]: 0.3; Binding of serum 6 to linear peptide (PEPSCAN-ELISA) [3]: 0.2; Binding of serum 6 to looped/cyclic peptides of protein N of SARS-CoV Urbani [3]: 0.5; Binding of serum 37 to linear peptide (PEPSCAN-ELISA) [3]: 0.7; Binding of serum 37 to looped/cyclic peptides of protein N of SARS-CoV Urbani [3]: 0.6; Binding of serum 62 to linear peptide (PEPSCAN-ELISA) [3]: 0.8; Binding of serum 62 to looped/cyclic peptides of protein N of SARS-CoV Urbani [3]: 0.7; Binding of serum London to linear peptide (PEPSCAN-ELISA) [3]: 0.6; Binding of serum London to looped/cyclic peptides of protein N of SARS-CoV Urbani [3]: 0.7; Binding of serum SARS-green to linear peptide (PEPSCAN-ELISA) [3]: 0.5; Binding of serum SARS-green to looped/cyclic peptides of protein N of SARS-CoV Urbani [3]: 0.7; Binding of serum SARS-yellow to linear peptide (PEPSCAN-ELISA) [3]: 0.8; Binding of serum SARS-yellow to looped/cyclic peptides of protein N of SARS-CoV Urbani [3]: 1.1; Binding of Control Serum Blood-Bank to Looped peptides [4]: 1.0; Binding of Control serum Blood-bank to linear peptides [4]: 0.8; Binding of Control serum LUMC to linear peptides [4]: 0.8; Binding of Control serum LUMC to looped peptides [4]: 0.9
QPLPQRQKKQPTVTL	0.1	0.7	0.1	0.3	0.2	–	0.2	–	0.3	–	0.4	0.6	0.6	1.3	0.2	1.3	1.0	0.6	0.5	0.9	Recognition of the peptide by sera of SARS-CoV infected individuals, and form (linear, looped/cyclic) in which it is recognized [3]: recognized in looped/cyclic form
